Laboratory results: ChEMBL document CHEMBL5375995, “Discovery and Mechanistic Study of Novel Mycobacterium tuberculosis ClpP1P2 Inhibitors” (J Med Chem, 2023)
The source made the active and inactive calls. The rule behind the calls is not given here.

How the values were obtained:
[1] = Selectivity index, ratio of IC50 for full-length Staphylococcus aureus ClpP complex/Escherichia coli ClpX delta N mutant (62 to 425 residues) expressed in Escherichia coli BL21(DE3) using FITC-casein as substrate to IC50 for N-terminal His6-SUMO-tagged Mtb ClpP1 (7 to 200 residues)/ClpP2 (13 to 214 residues) complex expressed in Escherichia coli BL21(DE3)
ClpP1P2 [2] = molecular target: ClpP1P2 (Mycobacterium tuberculosis (strain ATCC 25618 / H37Rv), UniProt P9WPC3+P9WPC5, I71F); experiment: Inhibition of Mtb ClpP1 I71F mutant expressed in Escherichia coli BL21(DE3)
[3] = system: ClpP1P2 (Mycobacterium tuberculosis (strain ATCC 25618 / H37Rv)), P9WPC5+P9WPC3 [I71V]; experiment: Inhibition of Mtb ClpP1 I71V mutant expressed in Escherichia coli BL21(DE3)
ClpP1P2 [4] = molecular target: ClpP1P2 (Mycobacterium tuberculosis (strain ATCC 25618 / H37Rv), UniProt P9WPC3+P9WPC5, S72T); experiment: Inhibition of Mtb ClpP1 S72T mutant expressed in Escherichia coli BL21(DE3)
[5] = system: ClpP1P2 (Mycobacterium tuberculosis (strain ATCC 25618 / H37Rv)), P9WPC5+P9WPC3 [M75A]; experiment: Inhibition of Mtb ClpP1 M75A mutant expressed in Escherichia coli BL21(DE3)
[6] = system: ClpP1P2 (Mycobacterium tuberculosis (strain ATCC 25618 / H37Rv)), P9WPC5+P9WPC3 [M75F]; experiment: Inhibition of Mtb ClpP1 M75F mutant expressed in Escherichia coli BL21(DE3)
[7] = system: ClpP1P2 (Mycobacterium tuberculosis (strain ATCC 25618 / H37Rv)), P9WPC5+P9WPC3 [M75L]; experiment: Inhibition of Mtb ClpP1 M75L mutant expressed in Escherichia coli BL21(DE3)
[8] = system: ClpP1P2 (Mycobacterium tuberculosis (strain ATCC 25618 / H37Rv)), P9WPC5+P9WPC3 [M95A]; experiment: Inhibition of Mtb ClpP1 M95A mutant expressed in Escherichia coli BL21(DE3)
[9] = system: ClpP1P2 (Mycobacterium tuberculosis (strain ATCC 25618 / H37Rv)), P9WPC5+P9WPC3 [M95Q]; experiment: Inhibition of Mtb ClpP1 M95Q mutant expressed in Escherichia coli BL21(DE3)
ClpP1P2 [10] = molecular target: ClpP1P2 (Mycobacterium tuberculosis (strain ATCC 25618 / H37Rv), UniProt P9WPC3+P9WPC5, M95L); experiment: Inhibition of Mtb ClpP1 M95L mutant expressed in Escherichia coli BL21(DE3)
ClpP1P2 [11] = molecular target: ClpP1P2 (Mycobacterium tuberculosis (strain ATCC 25618 / H37Rv), UniProt P9WPC3+P9WPC5, M95W); experiment: Inhibition of Mtb ClpP1 M95W mutant expressed in Escherichia coli BL21(DE3)
[12] = system: ClpP1P2 (Mycobacterium tuberculosis (strain ATCC 25618 / H37Rv)), P9WPC5+P9WPC3 [M95S]; experiment: Inhibition of Mtb ClpP1 M95S mutant expressed in Escherichia coli BL21(DE3)
ClpP1P2 [13] = molecular target: ClpP1P2 (Mycobacterium tuberculosis (strain ATCC 25618 / H37Rv), UniProt P9WPC3+P9WPC5, H117N); experiment: Inhibition of Mtb ClpP1 H117N mutant expressed in Escherichia coli BL21(DE3)
ClpP1P2 [14] = molecular target: ClpP1P2 (Mycobacterium tuberculosis (strain ATCC 25618 / H37Rv), UniProt P9WPC3+P9WPC5, H117A); experiment: Inhibition of Mtb ClpP1 H117A mutant expressed in Escherichia coli BL21(DE3)
[15] = system: ClpP1P2 (Mycobacterium tuberculosis (strain ATCC 25618 / H37Rv)), P9WPC5+P9WPC3 [R119E]; experiment: Inhibition of Mtb ClpP1 R119E mutant expressed in Escherichia coli BL21(DE3)
[16] = system: ClpP1P2 (Mycobacterium tuberculosis (strain ATCC 25618 / H37Rv)), P9WPC5+P9WPC3 [R119Q]; experiment: Inhibition of Mtb ClpP1 R119Q mutant expressed in Escherichia coli BL21(DE3)
ClpP1P2 [17] = molecular target: ClpP1P2 (Mycobacterium tuberculosis (strain ATCC 25618 / H37Rv), UniProt P9WPC3+P9WPC5, R119S); experiment: Inhibition of Mtb ClpP1 R119S mutant expressed in Escherichia coli BL21(DE3)
ClpP1P2 [18] = molecular target: ClpP1P2 (Mycobacterium tuberculosis (strain ATCC 25618 / H37Rv), UniProt P9WPC3+P9WPC5, Q142H); experiment: Inhibition of Mtb ClpP1 Q142H mutant expressed in Escherichia coli BL21(DE3)
ClpP1P2 [19] = molecular target: ClpP1P2 (Mycobacterium tuberculosis (strain ATCC 25618 / H37Rv), UniProt P9WPC3+P9WPC5, Q142R); experiment: Inhibition of Mtb ClpP1 Q142R mutant expressed in Escherichia coli BL21(DE3)
[20] = system: ClpP1P2 (Mycobacterium tuberculosis (strain ATCC 25618 / H37Rv)), P9WPC5+P9WPC3 [I146M]; experiment: Inhibition of Mtb ClpP1 I146M mutant expressed in Escherichia coli BL21(DE3)
[21] = system: ClpP1P2 (Mycobacterium tuberculosis (strain ATCC 25618 / H37Rv)), P9WPC5+P9WPC3 [I146V]; experiment: Inhibition of Mtb ClpP1 I146V mutant expressed in Escherichia coli BL21(DE3)
ClpP1P2 [22] = molecular target: ClpP1P2 (Mycobacterium tuberculosis (strain ATCC 25618 / H37Rv), UniProt P9WPC3+P9WPC5, I146T); experiment: Inhibition of Mtb ClpP1 I146T mutant expressed in Escherichia coli BL21(DE3)
ClpP1P2 [23] = molecular target: ClpP1P2 (Mycobacterium tuberculosis (strain ATCC 25618 / H37Rv), UniProt P9WPC3+P9WPC5, I146L); experiment: Inhibition of Mtb ClpP1 I146L mutant expressed in Escherichia coli BL21(DE3)
[24] = system: ClpP1P2 (Mycobacterium tuberculosis (strain ATCC 25618 / H37Rv)), P9WPC5+P9WPC3 [E149L]; experiment: Inhibition of Mtb ClpP1 E149L mutant expressed in Escherichia coli BL21(DE3)
ClpP1P2 [25] = molecular target: ClpP1P2 (Mycobacterium tuberculosis (strain ATCC 25618 / H37Rv), UniProt P9WPC3+P9WPC5, E149R); experiment: Inhibition of Mtb ClpP1 E149R mutant expressed in Escherichia coli BL21(DE3)
ClpP1P2 [26] = molecular target: ClpP1P2 (Mycobacterium tuberculosis (strain ATCC 25618 / H37Rv), UniProt P9WPC3+P9WPC5, E149K); experiment: Inhibition of Mtb ClpP1 E149K mutant expressed in Escherichia coli BL21(DE3)
ClpP1P2 [27] = molecular target: ClpP1P2 (Mycobacterium tuberculosis (strain ATCC 25618 / H37Rv), UniProt P9WPC3+P9WPC5, E149Q); experiment: Inhibition of Mtb ClpP1 E149Q mutant expressed in Escherichia coli BL21(DE3)
ClpP1P2 [28] = molecular target: ClpP1P2 (Mycobacterium tuberculosis (strain ATCC 25618 / H37Rv), UniProt P9WPC3+P9WPC5, E149T); experiment: Inhibition of Mtb ClpP1 E149T mutant expressed in Escherichia coli BL21(DE3)
ClpP1P2 [29] = molecular target: ClpP1P2 (Mycobacterium tuberculosis (strain ATCC 25618 / H37Rv), UniProt P9WPC3+P9WPC5, W174I); experiment: Inhibition of Mtb ClpP1 W174I mutant expressed in Escherichia coli BL21(DE3)
[30] = system: ClpP1P2 (Mycobacterium tuberculosis (strain ATCC 25618 / H37Rv)), P9WPC5+P9WPC3 [W174F]; experiment: Inhibition of Mtb ClpP1 W174F mutant expressed in Escherichia coli BL21(DE3)
ClpP1P2 [31] = molecular target: ClpP1P2 (Mycobacterium tuberculosis (strain ATCC 25618 / H37Rv), UniProt P9WPC3+P9WPC5, W174A); experiment: Inhibition of Mtb ClpP1 W174A mutant expressed in Escherichia coli BL21(DE3)

Compound: COc1cc2c(Oc3ccc4[nH]c(C)cc4c3F)ncnc2cc1OCCCN1CCCC1 [CEDIRANIB]
- Ratio IC50 [1]: 9.6
- IC50 (ClpP1P2 [2]): 3.4 µM
- inhibition [3]: inactive
- IC50 (ClpP1P2 [4]): > 54.5 µM
- inhibition [5]: Active
- inhibition [6]: inactive
- inhibition [7]: inactive
- inhibition [8]: Active
- inhibition [9]: inactive
- IC50 (ClpP1P2 [10]): 23.7 µM
- IC50 (ClpP1P2 [11]): 7.5 µM
- inhibition [12]: inactive
- IC50 (ClpP1P2 [13]): > 50 µM
- IC50 (ClpP1P2 [14]): 4.4 µM
- inhibition [15]: inactive
- inhibition [16]: inactive
- IC50 (ClpP1P2 [17]): 42.2 µM
- IC50 (ClpP1P2 [18]): 14.4 µM
- IC50 (ClpP1P2 [19]): 9.5 µM
- inhibition [20]: inactive
- inhibition [21]: inactive
- IC50 (ClpP1P2 [22]): 5.1 µM
- IC50 (ClpP1P2 [23]): 9.7 µM
- inhibition [24]: inactive
- IC50 (ClpP1P2 [25]): 41.8 µM
- IC50 (ClpP1P2 [26]): > 100 µM
- IC50 (ClpP1P2 [27]): 6.3 µM
- IC50 (ClpP1P2 [28]): 7.6 µM
- IC50 (ClpP1P2 [29]): 12.8 µM
- inhibition [30]: inactive
- IC50 (ClpP1P2 [31]): 20.2 µM
